≈ marks a conversion by molar mass, not a printed value.
Key:
[1] = molecular target: T1, Group 10 secretory phospholipase A2 (Homo sapiens, UniProt O15496); experiment: Inhibition of human PLA2G10
T1 sequence (O15496 whole entry): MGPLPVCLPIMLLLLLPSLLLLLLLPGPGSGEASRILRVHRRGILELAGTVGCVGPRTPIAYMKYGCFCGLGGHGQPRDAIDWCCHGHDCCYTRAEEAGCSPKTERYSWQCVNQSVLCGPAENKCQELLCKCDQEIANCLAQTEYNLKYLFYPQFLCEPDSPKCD

[2] = molecular target: T2, Alpha amylase (Homo sapiens, UniProt P0DUB6); experiment: Inhibition of alpha-amylase (unknown origin)
T2 sequence (P0DUB6 whole entry): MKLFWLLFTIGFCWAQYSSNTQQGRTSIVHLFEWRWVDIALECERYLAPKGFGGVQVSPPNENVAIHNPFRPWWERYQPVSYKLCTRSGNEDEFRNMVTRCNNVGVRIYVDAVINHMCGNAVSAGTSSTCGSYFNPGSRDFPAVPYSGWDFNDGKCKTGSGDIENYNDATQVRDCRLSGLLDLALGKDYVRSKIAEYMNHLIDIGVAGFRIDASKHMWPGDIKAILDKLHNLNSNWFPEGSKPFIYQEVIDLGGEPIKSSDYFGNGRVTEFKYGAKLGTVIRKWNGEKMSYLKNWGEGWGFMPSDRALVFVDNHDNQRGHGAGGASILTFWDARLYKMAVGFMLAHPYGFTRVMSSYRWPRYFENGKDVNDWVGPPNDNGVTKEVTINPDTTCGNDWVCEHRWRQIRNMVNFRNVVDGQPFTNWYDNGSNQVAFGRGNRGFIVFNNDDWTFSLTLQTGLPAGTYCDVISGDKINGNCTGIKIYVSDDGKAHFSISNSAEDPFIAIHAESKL

[3] = molecular target: T3, Group XIIA secretory phospholipase A2 (Homo sapiens, UniProt Q9BZM1); experiment: Inhibition of human PLA2G12A
T3 sequence (Q9BZM1 whole entry): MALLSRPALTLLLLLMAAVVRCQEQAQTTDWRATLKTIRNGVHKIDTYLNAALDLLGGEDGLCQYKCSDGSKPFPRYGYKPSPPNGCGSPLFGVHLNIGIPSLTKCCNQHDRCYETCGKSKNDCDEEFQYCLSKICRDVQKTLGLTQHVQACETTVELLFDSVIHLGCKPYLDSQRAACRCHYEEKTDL

[4] = molecular target: Phospholipase A2, major isoenzyme (Sus scrofa, UniProt P00592); experiment: Inhibition of porcine PLA2G1B
Phospholipase A2, major isoenzyme, sequence (P00592 whole entry): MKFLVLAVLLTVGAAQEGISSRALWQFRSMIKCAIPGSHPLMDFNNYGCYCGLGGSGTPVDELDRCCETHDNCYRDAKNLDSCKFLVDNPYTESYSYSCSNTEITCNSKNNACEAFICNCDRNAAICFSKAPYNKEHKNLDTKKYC

[5] = molecular target: T4, Phospholipase A2 group V (Homo sapiens, UniProt P39877); experiment: Inhibition of human PLA2G5
T4 sequence (P39877 whole entry): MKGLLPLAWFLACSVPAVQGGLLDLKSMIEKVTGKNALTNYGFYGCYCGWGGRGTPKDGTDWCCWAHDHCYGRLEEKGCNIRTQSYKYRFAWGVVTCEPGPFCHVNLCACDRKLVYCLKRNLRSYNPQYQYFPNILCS

[6] = molecular target: T5, Phospholipase A2, membrane associated (Homo sapiens, UniProt P14555); experiment: Inhibition of human PLA2G2A
T5 sequence (P14555 whole entry): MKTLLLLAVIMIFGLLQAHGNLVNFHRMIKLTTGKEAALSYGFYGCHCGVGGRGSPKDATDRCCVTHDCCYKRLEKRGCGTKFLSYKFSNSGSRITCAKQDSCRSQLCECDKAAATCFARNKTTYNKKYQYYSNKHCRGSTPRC

[7] = test system: Staphylococcus aureus; experiment: Antibacterial activity against Staphylococcus aureus assessed as diameter zone of inhibition; format: functional
[8] = test system: Streptococcus pneumoniae; experiment: Antibacterial activity against Streptococcus pneumoniae assessed as diameter zone of inhibition; format: functional
[9] = test system: Bacillus subtilis; experiment: Antibacterial activity against Bacillus subtilis assessed as diameter zone of inhibition; format: functional
[10] = test system: Salmonella typhimurium; experiment: Antibacterial activity against Salmonella typhimurium assessed as diameter zone of inhibition; format: functional, Salmonella enterica subsp. enterica serovar Typhimurium
[11] = test system: Pseudomonas aeruginosa; experiment: Antibacterial activity against Pseudomonas aeruginosa assessed as diameter zone of inhibition; format: functional
[12] = test system: Escherichia coli; experiment: Antibacterial activity against Escherichia coli assessed as diameter zone of inhibition; format: functional
[13] = test system: Rattus norvegicus; experiment: Antiinflammatory activity in rat model of hind paw edema assessed as paw thickness at 0.9 mg per 100 g of body weight measured after 4 hrs; format: functional
[14] = molecular target: Glutamate [NMDA] receptor; experiment: Displacement of [3H]DCKA from NMDA receptor (unknown origin); format: protein-complex assay, Homo sapiens
[15] = molecular target: Glutamate [NMDA] receptor (Homo sapiens) (UniProt Q05586+Q12879+Q13224+O15399+O60391+Q14957+Q8TCU5); experiment: Displacement of [3H]DCKA from NMDA receptor (unknown origin) at 10 ng/ml relative to control; format: protein-complex assay; settings: filed as antagonist
[16] = molecular target: Kappa-type opioid receptor (Homo sapiens, UniProt P41145); experiment: Antagonist at KOR expressed in human U2OS cells measured by High content imaging based beta-arrestin translocation assay; format: cell-based
Kappa-type opioid receptor, sequence (P41145 whole entry): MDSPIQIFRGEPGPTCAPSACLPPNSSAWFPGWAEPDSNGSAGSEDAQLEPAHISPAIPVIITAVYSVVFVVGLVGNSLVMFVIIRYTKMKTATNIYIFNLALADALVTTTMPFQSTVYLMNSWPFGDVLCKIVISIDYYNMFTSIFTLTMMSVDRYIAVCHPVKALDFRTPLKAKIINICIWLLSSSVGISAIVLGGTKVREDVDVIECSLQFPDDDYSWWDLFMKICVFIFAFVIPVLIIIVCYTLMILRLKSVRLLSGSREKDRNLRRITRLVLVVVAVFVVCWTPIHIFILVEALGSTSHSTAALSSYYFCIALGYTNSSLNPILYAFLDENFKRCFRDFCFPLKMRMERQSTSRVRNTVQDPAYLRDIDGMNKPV

[17] = Ratio IC50 for cytotoxicity against rat myoblast L6 cells over IC50 for antitrypanosomal activity against Trypanosoma brucei; format: toxicity, cell-based; settings: read-out: Ratio IC50
[18] = test system: Trypanosoma brucei; experiment: Antitrypanosomal activity against Trypanosoma brucei; format: functional, organism-based
[19] = Cytotoxicity against rat myoblast L6 cells; format: toxicity, cell-based
[20] = test system: Candida; experiment: Antifungal activity against Candida species; format: functional
[21] = test system: Pseudomonas aeruginosa; experiment: Antibacterial activity against Pseudomonas aeruginosa; format: functional
[22] = test system: HeLa S3; experiment: Cytotoxicity against human HeLa S3 cells; format: functional, cell-based
[23] = test system: Geobacillus stearothermophilus; experiment: Antibacterial activity against Bacillus stearothermophilus; format: functional
[24] = test system: Staphylococcus aureus; experiment: Antibacterial activity against Staphylococcus aureus; format: functional
[25] = test system: Escherichia coli; experiment: Antibacterial activity against Escherichia coli; format: functional
[26] = test system: Bacillus cereus; experiment: Antibacterial activity against Bacillus cereus; format: functional
[27] = test system: Klebsiella pneumoniae; experiment: Antibacterial activity against Klebsiella pneumoniae; format: functional
[28] = test system: Bacillus subtilis; experiment: Antibacterial activity against Bacillus subtilis; format: functional
[29] = test system: Shigella dysenteriae; experiment: Antibacterial activity against Shigella dysenteriae; format: functional
[30] = test system: Bacillus anthracis; experiment: Antibacterial activity against Bacillus anthracis; format: functional
[31] = test system: HT-29; experiment: Antiproliferative activity against human HT-29 cells; format: functional, cell-based
[32] = test system: HeLa; experiment: Antiproliferative activity against human HeLa cells; format: functional, cell-based
[33] = test system: SMMC-7721; experiment: Antiproliferative activity against human SMMC-7721 cells; format: functional, cell-based
[34] = test system: Mus musculus; experiment: Antiinflammatory activity against mouse assessed as reduction in carragenan-induced paw edema at 25 mg/kg,po treated 1 hr prior to carrageenan challenge; format: functional; parameters: scale not given: the % may be the effect or the level left
[35] = molecular target: Glutamate receptor ionotropic AMPA (Homo sapiens, UniProt P42261+P42262+P42263+P48058); experiment: Antagonist activity at AMPA receptor (unknown origin); format: protein-complex assay
[36] = molecular target: Glutamate [NMDA] receptor; experiment: Displacement of [3H]kainic acid from NMDA receptor (unknown origin); format: protein-complex assay, Homo sapiens
[37] = Displacement of [3H]AMPA from NMDA receptor (unknown origin); format: protein-complex assay, Homo sapiens
[38] = molecular target: Glutamate [NMDA] receptor; experiment: Displacement of [3H]CGP-39653 from NMDA receptor (unknown origin); format: protein-complex assay, Homo sapiens
[39] = test system: Staphylococcus aureus; experiment: Antibacterial activity against methicillin-sensitive Staphylococcus aureus; format: functional
[40] = test system: Staphylococcus aureus; experiment: Antibacterial activity against methicillin-resistant Staphylococcus aureus; format: functional

Compound: O=c1[nH]c2ccccc2n2c(-c3ccc(O)cc3O)ccc12
- IC50 [1]: 0.61 µM
- IC50 [2]: 1087.43 µM
- IC50 [3]: 0.91 µM
- IC50 [4]: 14.8 µM
- IC50 [5]: 1.05 µM
- IC50 [6]: 1.32 µM

Compound: Cc1ccccc1NCC(=O)N1CC(=O)Nc2ccccc21
- diameter of the inhibition zone (DIZ) [7]: 15 mm
- diameter of the inhibition zone (DIZ) [8]: 10 mm
- diameter of the inhibition zone (DIZ) [9]: 15 mm
- diameter of the inhibition zone (DIZ) [10]: 9 mm
- diameter of the inhibition zone (DIZ) [11]: 12 mm
- diameter of the inhibition zone (DIZ) [12]: 15 mm

Compound: O=C(Cc1nc2ccccc2[nH]c1=O)Nn1c(-c2ccc(Cl)cc2)csc1=S
- Activity [13]: 0.45 mm

Compound: O=c1[nH]c2ccccc2n2c(-c3ccc(Cl)c(Cl)c3)ccc12
- IC50 [1]: 2.71 µM
- IC50 [2]: 431.81 µM
- IC50 [3]: 1.41 µM
- IC50 [4]: 14.5 µM
- IC50 [5]: 3.04 µM
- IC50 [6]: 1.81 µM

Compound: O=C(CC1CCc2cc(Cl)cc3[nH]c(=O)c(=O)n1c23)Nc1ccccc1 (stereo not drawn)
- Ki [14]: 0.0066 µM
- Activity [15]: 79.3%

Compound: COc1ccc(N2CCN(CCCNC(=O)Cn3c(=O)c4cccn4c4cccnc43)CC2)cc1
- IC50 [16]: 0.173 µM

Compound: O=C1Nc2cc([N+](=O)[O-])ccc2N2CCCC12 (stereo not drawn)
- selectivity ratio [17]: 17.4
- IC50 [18]: 2.7 µM
- IC50 [19]: 46.7 µM

Compound: CCOC(=O)c1nc2ccc(C)cc2[nH]c1=O
- MIC [20]: 250 µg/mL (≈ 1080 µM)
- MIC [21]: 250 µg/mL (≈ 1080 µM)

Compound: N#Cc1ccc2c(c1)N1CCCCC1C(=O)N2 (stereo not drawn)
- IC50 [22]: 7.6 µM

Compound: Cc1cccc(C)c1NCC(=O)N1CC(=O)Nc2ccccc21
- diameter of the inhibition zone (DIZ) [7]: 8 mm
- diameter of the inhibition zone (DIZ) [8]: 8 mm
- diameter of the inhibition zone (DIZ) [9]: 11 mm
- diameter of the inhibition zone (DIZ) [10]: 9 mm
- diameter of the inhibition zone (DIZ) [11]: 11 mm
- diameter of the inhibition zone (DIZ) [12]: 10 mm

Compound: C/C(=N\Nc1nc2ccccc2[nH]c1=O)c1cc2cc(Cl)ccc2oc1=O
- MIC [23]: 7.8 µg/mL (≈ 20.5 µM)
- MIC [24]: 15.6 µg/mL (≈ 41 µM)
- MIC [25]: 7.8 µg/mL (≈ 20.5 µM)
- MIC [26]: 7.8 µg/mL (≈ 20.5 µM)
- MIC [27]: 7.8 µg/mL (≈ 20.5 µM)
- MIC [28]: 7.8 µg/mL (≈ 20.5 µM)
- MIC [29]: 15.6 µg/mL (≈ 41 µM)
- MIC [30]: 7.8 µg/mL (≈ 20.5 µM)

Compound: COc1ccc2c(c1)[nH]c(=O)c(=O)n2Cc1cc(OC)c(OC)c(OC)c1
- IC50 [31]: 1.48 µM
- IC50 [32]: 0.693 µM
- IC50 [33]: 1.6 µM

Compound: CN1CC(=O)N(C)c2cc([N+](=O)[O-])ccc21
- selectivity ratio [17]: 21.6
- IC50 [18]: 3.6 µM
- IC50 [19]: 78.2 µM

Compound: CC(C)Cc1ccc(C(C)C(=O)O)cc1 (stereo not drawn) [IBUPROFEN]
- Activity [34]: 39.3%

Compound: Cc1cc2[nH]c(=O)c(=O)n(C[C@H](N)C(=O)O)c2cc1C
- EC50 [35]: 290 µM

Compound: O=C(CC1CCc2cc(Br)cc3[nH]c(=O)c(=O)n1c23)Nc1ccccc1 (stereo not drawn)
- IC50 [36]: > 25 µM
- IC50 [37]: 4.6 µM
- Ki [14]: 0.0026 µM
- IC50 [38]: > 25 µM

Compound: O=c1[nH]c2ccccc2nc1Cc1nnc(S)n1-c1ccccc1
- Activity [13]: 0.47 mm

Compound: O=c1[nH]c2ccccc2n2c(-c3ccc([N+](=O)[O-])cc3[N+](=O)[O-])ccc12
- IC50 [1]: 1.05 µM
- IC50 [2]: 806.19 µM
- IC50 [3]: 2.58 µM
- IC50 [4]: 13.6 µM
- IC50 [5]: 1.53 µM
- IC50 [6]: 0.76 µM

Compound: COc1ccc2ncc(=O)n(CC[C@H]3OC[C@H](NCc4cc5c(cn4)OCCC5)CO3)c2c1
- MIC [39]: 8.16 µg/mL (≈ 18 µM)
- MIC [40]: 32 µg/mL (≈ 70.7 µM)

Source: ChEMBL document CHEMBL5113380, “Functionalized quinoxalinones as privileged structures with broad-ranging pharmacological activities” (Eur J Med Chem, 2022)
